Values joined by “and” are separate entries in the source; they are usually repeats but may differ in a detail not shown here. Equal entries are not always repeated.
Tests used:
WT KRAS = molecular target: T1, WT KRAS (Homo sapiens, UniProt P01116+P62937); test: KRAS–RALGDS RID binding inhibition in vitro; assay type: biochemical; design: TR-FRET of recombinant KRAS and RALGDS RID: scale not given here; conditions: for TR-FRET of recombinant KRAS and RALGDS RID: single replicates
T1 construct: His6-TEV (N); made in house; host or cells: E. coli BL21(DE3)

[1] = system: CT26 syngeneic tumours engineered to express KRAS^G12C; test: Immune cell response in eCT26 KRAS^G12C syngeneic tumours; assay type: in vivo, mouse; conditions: 24 hours post 4 days of treatment, 25 mg/kg PO QD, individual mice
Procedure: Tumor tissue was minced, processed with the Dri Tumor & Tissue Dissociation Reagent from BD Biosciences and homogenized with the gentleMACS™ Dissociator. Tumor cell suspensions were incubated at 4°C for 30 minutes with Mouse BD Fc Block (Clone 2.4G2 from BD Pharmingen), 10 minutes with Blue Dead Cell Stain Kit (Invitrogen) and 30 min in cell staining buffer. […] Cells were analyzed on a 4-laser Cytek Aurora (Cytek Biosciences), and data analysis was done using SpectroFlo (Cytek Biosciences) and FlowJo (FlowJo LLC.).

KRAS–SOS1 = molecular target: T2, KRAS–SOS1 (Homo sapiens, UniProt P01116+); test: Cellular nano-BRET, catalytic domain of SOS1 binding to KRAS; assay type: cell-based; conditions: in the presence of CYPA, single replicates;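 further: U2OS cells expressing partner proteins fused at the N-terminus to nanoluciferase or HaloTag, nano-BRET signal read after inhibitor exposure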
T2 construct: expressed in transfected cells; host or cells: U2OS

KRAS^G12S = KRAS^G12S (Homo sapiens, UniProt P01116+P62937, G12S); test: Cellular RAS–RAF (CRAF RBD) disruption, nano-BRET in U2OS cells; assay type: cell-based; design: expressed in transfected cells; host or cells: U2OS PPIA-KO; conditions: (95% CI)
Excerpt: KRAS4B, or other small GTPases, containing the indicated mutations were cloned in pNLF-N or pHTN plasmids for expression with an N-terminal nanoluciferase or HaloTag fusion, respectively. […] The following day, the cells were collected by Trypsin and reseeded in a white tissue culture-treated 96-well plate in OptiMem phenol red-free medium (Gibco) containing 4% FBS and a 1:1,000 dilution of NanoBRET 618 HaloTag ligand (Promega). For endpoint concentration response curves, vivazine nanoluciferase substrate was added to 1× concentration in OptiMem phenol red-free medium with 4% FBS. Varying concentrations of inhibitor were added and incubated for 1 or 4 h before the nano-BRET signal was measured on a Perkin Elmer Envision plate reader. For kinetic assays, endurazine nanoluciferase substrate was used in place of vivazine, and the plate was placed in a Cytation5 multi-mode reader pre-equilibrated to 37 °C and 5% CO2.

[2] = system: DUSP6 mRNA in NCI-H441 xenograft tumours; test: In vivo pharmacodynamic analysis by DUSP6 qPCR in NCI-H441 CDX tumours; design: species or system mouse; conditions: for % inhibition of DUSP6 vs control: single dose, tumor, individual animals
Procedure: RNA extraction and analysis of DUSP6 levels by in tumour tissue were performed as previously described.

CCn1c(-c2cc(N3CCN(C4CC4)CC3)cnc2[C@H](C)OC)c2c3cc(ccc31)-c1csc(n1)C[C@H](NC(=O)[C@H]1[C@@H]3COC[C@@H]31)C(=O)N1CCC[C@H](N1)C(=O)OCC(C)(C)C2 [RMC-7977]
TR-FRET of recombinant KRAS and RALGDS RID (WT KRAS; RMC-7977 1.235 nM with CYPA): 0.966 and 0.9012 and 0.7562 and 0.8255
TR-FRET of recombinant KRAS and RALGDS RID (WT KRAS; RMC-7977 3.704 nM with CYPA): 0.755 and 0.7635 and 0.8193 and 0.729
TR-FRET of recombinant KRAS and RALGDS RID (WT KRAS; RMC-7977 11.111 nM with CYPA): 0.531 and 0.5523 and 0.5275 and 0.6425
TR-FRET of recombinant KRAS and RALGDS RID (WT KRAS; RMC-7977 33.333 nM with CYPA): 0.3432 and 0.2545 and 0.2295 and 0.2898
TR-FRET of recombinant KRAS and RALGDS RID (WT KRAS; RMC-7977 100.000 nM with CYPA): 0.19 and 0.03225 and 0.05775 and 0.042
IC50 (WT KRAS; recombinant, with CYPA): 14 nM
AH1 specific % of CD8+ cells [1]: 37.8% and 45.2% and 69.2% and 39.2%
CD8+ % of CD45+ cells [1]: 36.2% and 31.8% and 38.7% and 46.1%
CD45+ % of live cells [1]: 77.4% and 74.9% and 84.2% and 83.5%
Cellular nano-BRET of SOS1 (catalytic domain) binding to KRAS WT (KRAS–SOS1; RMC-7977 0.152 nM): 8.563 and 8.127 and 7.755 and 7.611 and 8.1239 and 8.058
Cellular nano-BRET of SOS1 (catalytic domain) binding to KRAS WT (KRAS–SOS1; RMC-7977 0.457 nM): 8.149 and 7.736 and 7.651 and 7.24 and 7.671 and 7.508
Cellular nano-BRET of SOS1 (catalytic domain) binding to KRAS WT (KRAS–SOS1; RMC-7977 1.372 nM): 7.907 and 7.747 and 7.493 and 7.384 and 7.007 and 7.17
Cellular nano-BRET of SOS1 (catalytic domain) binding to KRAS WT (KRAS–SOS1; RMC-7977 4.115 nM): 6.922 and 7.229 and 6.471 and 6.374 and 6.52 and 6.661
Cellular nano-BRET of SOS1 (catalytic domain) binding to KRAS WT (KRAS–SOS1; RMC-7977 12.346 nM): 6.508 and 6.709 and 6.01 and 5.988 and 6.2252 and 6.045
Cellular nano-BRET of SOS1 (catalytic domain) binding to KRAS WT (KRAS–SOS1; RMC-7977 37.037 nM): 7.064 and 6.964 and 6.2728 and 5.9257 and 6.205 and 6.027
Cellular nano-BRET of SOS1 (catalytic domain) binding to KRAS WT (KRAS–SOS1; RMC-7977 111.111 nM): 6.712 and 6.771 and 6.171 and 6.63 and 5.929 and 6.341
Cellular nano-BRET of SOS1 (catalytic domain) binding to KRAS WT (KRAS–SOS1; RMC-7977 333.333 nM): 6.383 and 7.187 and 5.742 and 6.572 and 6.198 and 6.656
Cellular nano-BRET of SOS1 (catalytic domain) binding to KRAS WT (KRAS–SOS1; RMC-7977 1000.000 nM): 6.907 and 6.939 and 5.652 and 5.948 and 6.113 and 6.236
EC50 (KRAS^G12S): 15.1 nM
EC50 ([2]; Mus musculus, NCI-H441, po, read-out: EC50, total tumour concentration versus DUSP6 inhibition): 130 nM
EC90 ([2]; Mus musculus, NCI-H441 CDX, single oral administration, read-out: EC90, tumour concentration versus DUSP6 inhibition): 1450 nM
RMC-7977 10 mg/kg po dusp6 ([2]; NCI-H441 CDX tumour DUSP6 mRNA, single oral 10 mg/kg, 1 h, individual replicates, 10 mg/kg): 34.819 and 101.252 and 98.4831
RMC-7977 25 mg/kg po dusp6 ([2]; NCI-H441 CDX tumour DUSP6 mRNA, single oral 25 mg/kg, 1 h, individual replicates, 25 mg/kg): 26.2056 and 15.6903 and 16.7583
suppression of tumour DUSP6 levels ([2]; NCI-H441 CDX, single oral dose of 10 mg kg^−1, at 8 h): 91%
% inhibition of DUSP6 vs control ([2]; 8h, 1 mg/kg): 63.5% and 36.8% and 52.6%
% inhibition of DUSP6 vs control ([2]; 8h, 5 mg/kg): 53.7% and 91.7% and 1.5%
% inhibition of DUSP6 vs control ([2]; 8h, 10 mg/kg): 95.7% and 96.4% and 96.3% and 93.6937% and 85.7607% and 93.075%
% inhibition of DUSP6 vs control ([2]; 8h, 25 mg/kg): 95.995% and 81.4698% and 87.9011%
% inhibition of DUSP6 vs control ([2]; 24h, 1 mg/kg): 0% and 16.6%
% inhibition of DUSP6 vs control ([2]; 24h, 5 mg/kg): 6.8% and 29.4% and 61.8%
% inhibition of DUSP6 vs control ([2]; 24h, 10 mg/kg): 89.7% and 90.2% and 86.9% and 86.5288% and 67.1731% and 84.3639%
% inhibition of DUSP6 vs control ([2]; 24h, 25 mg/kg): 94.1768% and 94.6786% and 96.3905%
% inhibition of DUSP6 vs control ([2]; 48h, 1 mg/kg): 0% and 32.5%
% inhibition of DUSP6 vs control ([2]; 48h, 5 mg/kg): 3.9% and 33.4% and 22.2%
% inhibition of DUSP6 vs control ([2]; 48h, 10 mg/kg): 72.3% and 74.6% and 69.6% and 56.232% and 64.817% and 89.3572%
% inhibition of DUSP6 vs control ([2]; 48h, 25 mg/kg): 81.914% and 86.388% and 94.0545%
% inhibition of DUSP6 vs control ([2]; 72h, 5 mg/kg): 0% and 11.9%
% inhibition of DUSP6 vs control ([2]; 72h, 10 mg/kg): 0.2% and 45.2% and 48.1% and 87.4744% and 67.1731%
% inhibition of DUSP6 vs control ([2]; 72h, 25 mg/kg): 87.2112% and 72.4915% and 81.7249%

Source: PMC11111408, “Concurrent inhibition of oncogenic and wild-type RAS-GTP for cancer therapy” (Nature, 2024)
